{"source": "paper PMC8222254", "about": "“Self-assembly of an anion receptor with metal-dependent kinase inhibition and potent in vitro anti-cancer properties” (Nature Communications, 2021)", "key": {"ARPE-19": {"system": "ARPE-19", "experiment": "Metabolic flux analysis (Cell Energy Phenotype Assay, OCR/ECAR)", "format": "cell-based, human", "design": "Baseline EACR / Mean Baseline EACR / Stressed OCR / Mean Stressed OCR / Stressed EACR / Mean Stressed EACR / Baseline OCR / Mean Baseline OCR: unit not given here", "conditions": "for Baseline EACR / Baseline OCR / Stressed EACR / Stressed OCR / Mean Baseline EACR / Mean Baseline OCR / Mean Stressed EACR / Mean Stressed OCR: ARPE19 cells", "experimental": "ARPE-19 and HCT116 cells were seeded in 8-well XFp plates (Agilent) 48 h prior to metabolic flux analyses using the Agilent XFp extracellular flux analyser. Cell seeding densities were 2500 cells/well for ARPE-19 cells and 7500 cells/well for HCT116 cells in order to achieve equivalent cell confluency (~70% confluency and in log phase growth) at the time of analyses. Cells were treated with 25 μM of [L2Zn3]^6+ or solvent control (0.2% DMSO) for 1 h or 20 h before metabolic flux analyses using the Cell Energy Phenotype Assay (Agilent) in accordance with the manufacturer’s instructions. For determination of maximal respiratory and glycolytic rates (metabolic reserve) following real-time quantification of basal respiratory and glycolytic rates, a ‘metabolic stress mix’ of 1 µM oligomycin and FCCP (0.5 µM for ARPE-19, 0.25 µM for HCT116) was injected into the media."}, "Src": {"target": "T1, Src (Homo sapiens, UniProt P12931)", "T1 construct": "His tag (N); host or cells: baculovirus expression system", "experiment": "In vitro phosphatase assay with recombinant kinase, immunoblotting", "format": "biochemical", "conditions": "50 μM complex, 4 h, with ATP", "experimental": "(§1) 800 ng of purified recombinant human AMPK (α1β2γ1) or Src kinase (MRC PPU, International Centre for Kinase Profiling, University of Dundee) was incubated with 50 μM [L2Cu3]^6+, [L2Zn3]^6+, or vehicle control in 50 mM Tris HCl pH 7.5 containing 50 μM ATP for 4 h at 37 °C. For [L2Zn3]^6+ time course and concentration titration experiments, 800 ng recombinant human AMPK was used (α1β2γ1 AMPK isoform for pT172 AMPKα1 detection or α2β1γ1 AMPK isoform for pS108 AMPKβ1 detection). For evaluation of ATP dependency and influence of AMP, 50 µM ATP was replaced with 50 µM AMP or omitted. Reactions were stopped by addition of Laemmli’s buffer (Biorad) to 1x and heating at 95 °C for 5 min before analysis by SDS PAGE and immunoblotting for detection of specific phosphorylated amino acids of AMPK and Src proteins.\n(§2) Protein lysates and recombinant proteins were resolved on 15% SDS polyacrylamide gels. Proteins were electroblotted onto nitrocellulose membrane by wet transfer in 1xTris Glycine buffer (Biorad) at 35 mA overnight at room temperature. After blocking of membranes, these were incubated with primary antibody overnight at 4 °C before addition of rabbit or mouse secondary antibody (HRP-conjugated; 1:5000, Dako P0448 or P0260) for 1 h at room temperature and development of blots by enhanced chemiluminescence. Primary antibodies were: anti-Src (total) (Cell Signalling Technology #2123 1:1000), anti-phosphorylated Src (Y527) (Cell Signalling Technology #21055 1:1000), anti-phosphorylated Src (Y416) (Cell Signalling Technology #69435 1:1000), anti-AMPKα (total) (Cell Signalling Technology #2532 1:1000), anti-phosphorylated AMPKα (T172) (Cell Signalling Technology #2535 1:1000), anti-AMPKβ1 (total) (Cell Signalling Technology #4150 1:1000), anti-phosphorylated AMPKβ1 (S108) (abcam ab156890 1:500), anti-phospho-Tyr (pan) (Cell Signalling Technology #8954 1:2000), anti-p53 (Santa Cruz, DO-1 clone, 1:1000,), anti-phosphorylated LDH-A (Y10) (Cell Signalling Technology #8176 1:1000), anti-LDH-A/B (total) (abcam ab134187 1:5000), anti-β-actin (Merck MAB1501, 1:40,000). Quantification of signals was performed by densitometry using Image J software. Uncropped and unprocessed scans are provided in the Source Data file."}, "[1]": {"system": "recombinant human AMPK (pT172 AMPKα1, pS108 AMPKβ1)", "experiment": "In vitro phosphatase assay with recombinant kinase, immunoblotting", "format": "biochemical", "conditions": "50µM", "experimental": "as §1, §2"}, "[2]": {"target": "recombinant human AMPK (pT172 AMPKα1, pS108 AMPKβ1) (Homo sapiens, UniProt Q9Y478)", "sequence (Q9Y478 whole entry)": "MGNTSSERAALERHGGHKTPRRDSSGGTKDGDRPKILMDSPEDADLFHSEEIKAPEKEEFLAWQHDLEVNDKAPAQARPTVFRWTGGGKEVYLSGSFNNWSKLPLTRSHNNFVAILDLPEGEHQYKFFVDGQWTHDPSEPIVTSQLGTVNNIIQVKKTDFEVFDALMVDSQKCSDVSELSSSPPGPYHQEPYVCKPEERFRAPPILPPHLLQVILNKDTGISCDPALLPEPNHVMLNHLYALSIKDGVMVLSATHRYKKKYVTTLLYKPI", "sequence (P54646 whole entry partner)": "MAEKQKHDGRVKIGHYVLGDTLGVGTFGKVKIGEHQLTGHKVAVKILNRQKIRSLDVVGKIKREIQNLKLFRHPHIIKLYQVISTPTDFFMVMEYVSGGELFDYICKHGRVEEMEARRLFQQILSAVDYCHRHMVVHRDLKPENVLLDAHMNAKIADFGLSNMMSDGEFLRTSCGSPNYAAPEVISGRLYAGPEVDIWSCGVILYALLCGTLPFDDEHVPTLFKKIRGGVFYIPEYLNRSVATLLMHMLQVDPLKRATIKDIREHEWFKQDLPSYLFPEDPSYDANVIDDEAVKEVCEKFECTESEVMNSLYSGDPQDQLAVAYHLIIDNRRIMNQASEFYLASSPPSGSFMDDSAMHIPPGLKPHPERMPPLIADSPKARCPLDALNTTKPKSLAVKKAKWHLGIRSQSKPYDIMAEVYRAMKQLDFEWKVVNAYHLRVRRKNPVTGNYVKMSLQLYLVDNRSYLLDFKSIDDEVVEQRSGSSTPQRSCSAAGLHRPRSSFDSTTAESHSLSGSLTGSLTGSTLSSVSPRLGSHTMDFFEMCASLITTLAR", "sequence (P54619 whole entry partner)": "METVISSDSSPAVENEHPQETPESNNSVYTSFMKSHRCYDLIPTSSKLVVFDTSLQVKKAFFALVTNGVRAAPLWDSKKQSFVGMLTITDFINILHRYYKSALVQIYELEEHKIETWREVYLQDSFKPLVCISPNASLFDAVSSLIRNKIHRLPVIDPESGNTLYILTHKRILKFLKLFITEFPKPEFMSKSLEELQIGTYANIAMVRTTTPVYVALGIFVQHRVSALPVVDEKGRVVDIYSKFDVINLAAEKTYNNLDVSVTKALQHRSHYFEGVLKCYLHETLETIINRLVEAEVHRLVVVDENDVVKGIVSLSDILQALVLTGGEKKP", "experiment": "In vitro phosphatase assay with recombinant kinase, immunoblotting", "format": "biochemical", "conditions": "concentration titration 0-50µM", "experimental": "as §1, §2"}, "[3]": {"conditions": "1h exposure, mean of 3 runs (Fig. 9c)"}, "[4]": {"conditions": "20h exposure, mean of 3 runs (Fig. 9d)"}}, "data": [{"smiles": "CC(=O)[O-].CC(=O)[O-].CC(=O)[O-].CC(=O)[O-].CC(=O)[O-].CC(=O)[O-].[Zn+2].[Zn+2].[Zn+2].c1ccc(-c2csc(NCCN(CCNc3nc(-c4ccccn4)cs3)CCNc3nc(-c4ccccn4)cs3)n2)nc1.c1ccc(-c2csc(NCCN(CCNc3nc(-c4ccccn4)cs3)CCNc3nc(-c4ccccn4)cs3)n2)nc1", "note": "[[L2Zn3]6+]", "values": [{"measurement": "Baseline EACR", "setting": "ARPE-19; 1h exposure, Run 1 (Fig. 9c)", "value": 18.76}, {"measurement": "Baseline OCR", "setting": "ARPE-19; 1h exposure, Run 1 (Fig. 9c)", "value": 23.36}, {"measurement": "Stressed EACR", "setting": "ARPE-19; 1h exposure, Run 1 (Fig. 9c)", "value": 24.63}, {"measurement": "Stressed OCR", "setting": "ARPE-19; 1h exposure, Run 1 (Fig. 9c)", "value": 30.28}, {"measurement": "Baseline EACR", "setting": "ARPE-19; 1h exposure, Run 2 (Fig. 9c)", "value": 18.49}, {"measurement": "Baseline OCR", "setting": "ARPE-19; 1h exposure, Run 2 (Fig. 9c)", "value": 21.88}, {"measurement": "Stressed EACR", "setting": "ARPE-19; 1h exposure, Run 2 (Fig. 9c)", "value": 25.17}, {"measurement": "Stressed OCR", "setting": "ARPE-19; 1h exposure, Run 2 (Fig. 9c)", "value": 27.97}, {"measurement": "Baseline EACR", "setting": "ARPE-19; 1h exposure, Run 3 (Fig. 9c)", "value": 18.70}, {"measurement": "Baseline OCR", "setting": "ARPE-19; 1h exposure, Run 3 (Fig. 9c)", "value": 20.12}, {"measurement": "Stressed EACR", "setting": "ARPE-19; 1h exposure, Run 3 (Fig. 9c)", "value": 24.11}, {"measurement": "Stressed OCR", "setting": "ARPE-19; 1h exposure, Run 3 (Fig. 9c)", "value": 25.60}, {"measurement": "Mean Baseline EACR", "setting": "ARPE-19; [3]", "value": 18.65}, {"measurement": "Mean Baseline OCR", "setting": "ARPE-19; [3]", "value": 21.79}, {"measurement": "Mean Stressed EACR", "setting": "ARPE-19; [3]", "value": 24.64}, {"measurement": "Mean Stressed OCR", "setting": "ARPE-19; [3]", "value": 27.95}, {"measurement": "Baseline EACR", "setting": "ARPE-19; 20h exposure, Run 1 (Fig. 9d)", "value": 13.57}, {"measurement": "Baseline OCR", "setting": "ARPE-19; 20h exposure, Run 1 (Fig. 9d)", "value": 9.08}, {"measurement": "Stressed EACR", "setting": "ARPE-19; 20h exposure, Run 1 (Fig. 9d)", "value": 15.01}, {"measurement": "Stressed OCR", "setting": "ARPE-19; 20h exposure, Run 1 (Fig. 9d)", "value": 12.02}, {"measurement": "Baseline EACR", "setting": "ARPE-19; 20h exposure, Run 2 (Fig. 9d)", "value": 10.60}, {"measurement": "Baseline OCR", "setting": "ARPE-19; 20h exposure, Run 2 (Fig. 9d)", "value": 7.37}, {"measurement": "Stressed EACR", "setting": "ARPE-19; 20h exposure, Run 2 (Fig. 9d)", "value": 11.55}, {"measurement": "Stressed OCR", "setting": "ARPE-19; 20h exposure, Run 2 (Fig. 9d)", "value": 9.95}, {"measurement": "Baseline EACR", "setting": "ARPE-19; 20h exposure, Run 3 (Fig. 9d)", "value": 12.23}, {"measurement": "Baseline OCR", "setting": "ARPE-19; 20h exposure, Run 3 (Fig. 9d)", "value": 7.73}, {"measurement": "Stressed EACR", "setting": "ARPE-19; 20h exposure, Run 3 (Fig. 9d)", "value": 13.58}, {"measurement": "Stressed OCR", "setting": "ARPE-19; 20h exposure, Run 3 (Fig. 9d)", "value": 9.28}, {"measurement": "Mean Baseline EACR", "setting": "ARPE-19; [4]", "value": 12.13}, {"measurement": "Mean Baseline OCR", "setting": "ARPE-19; [4]", "value": 8.06}, {"measurement": "Mean Stressed EACR", "setting": "ARPE-19; [4]", "value": 13.38}, {"measurement": "Mean Stressed OCR", "setting": "ARPE-19; [4]", "value": 10.41}, {"measurement": "glycolysis (ECAR)", "setting": "ARPE-19; ARPE-19, 25 μM, 1 h", "value": "unaffected"}, {"measurement": "decrease in Y527P relative to total Src levels", "setting": "Src", "value": "~ 30%"}, {"measurement": "increase in Y416P levels", "setting": "Src", "value": "~ 5 fold"}, {"measurement": "time from which decrease in phosphorylated T172 AMPKα and S108 AMPKβ1 is evident", "setting": "[1]", "value": "≥ 2", "unit": "h"}, {"measurement": "concentration from which dephosphorylation is evident", "setting": "[2]", "value": "≥ 12.5", "unit": "µM"}]}]}
